What was measured:
[1] = system: Pyrenophora teres; experiment: 1 day protective application against net blotch of barley; type: in vivo; settings: 63 ppm, sprayed to runoff on barley seedlings; inoculated 24 hours after drying; assessed visually after 6 days; untreated plants 90% infected
Procedure: The active compounds were prepared separately or together as a stock solution with 0.25% by weight of active compound in acetone or DMSO. 1% by weight of the emulsifier Uniperol® EL (wetting agent with an emulsifying and dispersing action based on ethoxylated alkylphenols) was added to this solution and appropriately diluted with water to the desired concentration. Use example 2—Activity in 1 day protective application against net blotch of barley caused by Pyrenophora teres Leaves of pot-grown barley seedlings were sprayed to runoff point with an aqueous suspension in the active compound concentration given below. 24 hours after the spray coating had dried on, the test plants were inoculated with an aqueous suspension of spores of Pyrenophora [syn. Drechslera] teres, the causative agent of net blotch. The test plants were subsequently placed in a greenhouse at temperatures of between 20 and 24° C. and a relative atmospheric humidity of 95 to 100%. After 6 days, the extent of development of the disease was determined visually in % of infection of the total leaf area.

[2] = system: Sphaerotheca fuliginea; experiment: Protective application against powdery mildew on cucumber leaves; type: in vivo; settings: 63 ppm, sprayed to runoff on cucumber seedlings 'Chinese Snake'; inoculated 20 hours after drying; assessed visually after 7 days; untreated plants 100% infected
Procedure: The active compounds were prepared separately or together as a stock solution with 0.25% by weight of active compound in acetone or DMSO. 1% by weight of the emulsifier Uniperol® EL (wetting agent with an emulsifying and dispersing action based on ethoxylated alkylphenols) was added to this solution and appropriately diluted with water to the desired concentration. Use example 1—Activity in protective application against powdery mildew on cucumber leaves caused by Sphaerotheca fuliginea Leaves of pot-grown cucumber seedlings of the variety “Chinese Snake” in the cotyledon stage were sprayed to runoff point with an aqueous suspension in the active compound concentration given below. 20 hours after the spray coating had dried on, the plants were inoculated with an aqueous suspension of spores of powdery mildew of cucumber (Sphaerotheca fuliginea). The plants were subsequently cultivated for 7 days in a greenhouse at temperatures of between. 20 and 24° C. and a relative atmospheric humidity of 60 to 80%. The extent of mildew development was then determined visually in % of infection of the cotyledon area.

Compound | extent of development of the disease in % of infection of the total leaf area [1] | extent of mildew development in % of infection of the cotyledon area [2]
CC1CCN(c2c(-c3c(F)cc(F)cc3F)c(C#N)nc3ncnn23)CC1 [Compound I-2, 5-cyano-6-(2,4,6-trifluorophenyl)-7-(4-methylpiperidinyl)[1,2,4]triazolo[1,5a]pyrimidine] | no infection | no infection
COc1nc2ncnn2c(N2CCC(C)CC2)c1-c1c(F)cc(F)cc1F [Compound I-5, 5-methoxy-6-(2,4,6-trifluorophenyl)-7-(4-methylpiperidinyl)[1,2,4]triazolo[1,5a]pyrimidine] | no infection | no infection
